Key:
KB-V1 cell line = details: reported by Lin et al., Magn. Reson. Chem. 31:340-347 (1993); cited from earlier work
[1] = tested on: human non-small cell lung cancer cell line A-549; test: Inhibition of cell proliferation (GI50) and cell death (LC50), A-549; type: cell-based; details: A-549, 48 h; read-out: GI50 (dose for 50% inhibition of cell proliferation)
Procedure: (§1) T47D, ZR-75-1, PC-3, human prostate cancer cell line DU-145, human non-small cell lung cancer cell line A-549, human small cell lung cancer cell line SHP-77, HL-60 and MRC-5 cells were grown and harvested as in Example 90. […] The samples were mixed by agitation and incubated at 37° C. for 2-4 h in a 5% CO2-95% humidity incubator. […] This determines the possible background absorbance of the test compounds. No absorbance for gambogic acid or its analogs or derivatives was found at 490 nm. After the 2-4 h incubation, the samples were read for absorbance as above (ATest).
(§2) Baseline for GI50 (dose for 50% inhibition of cell proliferation) and LC50 (dose for 50% cell death) of initial cell numbers was determined by adding an aliquot of 90 μl of cells or 90 μl of media, respectively, to wells of a 96-well microtiter plate containing 10 μl of a 10% DMSO in RPMI-1640 media solution. […] The samples were mixed by agitation and incubated at 37° C. for 2-4 h in a 5% CO2-95% humidity incubator. Absorbance was read as above, (AT=0) defining absorbance for initial cell number used as baseline in GI50 determinations and (Amin) defining absorbance for media alone used as baseline in LC50 determinations.
(§3) GI50 (dose for 50% inhibition of cell proliferation)
(§4) LC50 (dose for 50% cell death)
(§5) 50=100×[(ATest−Amin)/(AT=0−Amin)]

HL-60 cells = test: Inhibition of cell proliferation (GI50) and cell death (LC50), HL-60; type: cell-based; details: HL-60, 48 h
Procedure: as §1, §2, §3, §4, §5

[2] = tested on: caspase activity, T47D cells; test: Caspase induction and its inhibition by caspase inhibitor (Example 97), T47D; type: cell-based, human; parameters: key to Inhibition of caspase activity by Inhibitor: The caspase activity detected was inhibited by the caspase inhibitor (+)
Procedure: (§6) T47D, ZR-75, PC3, SHP-77 and A-549 cells were maintained and harvested as described in Example 90. Cells were added to 96-well plates as described in Example 90. The cells were treated with 10 μM gambogic acid, in the presence and in the absence of 10 μM caspase inhibitor cbz-Val-Asp-fmk (Cytovia, Inc.; WO99/18781). The plate was incubated up to 24 h at 37° C in a 5% CO2-95% humidity incubator. Caspase activity was determined by addition of a fluorogenic substrate as described in Example 90.
(§7) Gambogic acid induced caspase activity in a ratio of greater than 2.5 (+) above untreated cell levels in all the tested cancer cell lines (Table IV). The caspase activity detected was inhibited by the caspase inhibitor (+), confirming that the fluorescent signal was due to caspase activity.

T47D breast cancer cells = test: Nuclear fragmentation in T47D breast cancer cells (Syto16 stain); type: cell-based, human; details: 10 μM, 24 h (FIG. 2B)
Procedure: T47D cells were grown and plated as described in Example 90. The cells were treated with 10 μM of gambogic acid and the plate was incubated for up to 24 h at 37° C. in a 5% CO2-95% humidity incubator. At 24 h, the cells were incubated with a live cell nucleic acid stain, Syto16 (Molecular Probes) which stains DNA. After 2 washes with PBS, cells were examined under a fluorescence microscope. […] Nuclear fragmentation is a clear indicator of cellular apoptosis.

[3] = tested on: human prostate cancer cell line DU-145; test: Inhibition of cell proliferation (GI50) and cell death (LC50), DU-145; type: cell-based; details: DU-145, 48 h; read-out: GI50 (dose for 50% inhibition of cell proliferation)
Procedure: as §1, §2, §3, §4, §5

Jurkat T leukemia cells = test: Apoptotic morphology in Jurkat cells; type: cell-based
Procedure: Jurkat T leukemia cells were grown in RPMI 1640 media (Life Technologies, Inc.)+10% FCS (Sigma Chemical Company) in a 5% CO2-95% humidity incubator at 37° C., and maintained at a cell density between 4 and 8×10^5 cells/ml. Cells were harvested at 200× g and resuspended at 1-2×10^6 cells/ml into RPMI 1640 media+10% FCS, and 3 ml of the cells was dispensed in each of three wells of a 6-well plate. One of the wells was treated with 10 μM caspase inhibitor cbz-Val-Asp-fink (Cytovia, Inc.; WO99/18781) and the plate was incubated at 37° C. in a 5% CO2-95% humidity incubator for 1 h prior to addition of gambogic acid. The wells with and without the caspase inhibitor were treated with 10 μM gambogic acid. The third well was treated with solvent (control cells). The plate was incubated at 37° C. in a 5% CO2-95% humidity incubator.
At 30 min. after addition of gambogic acid an aliquot of cells from each well was taken into the capillary slides and observed under a phase-contrast microscope.

[4] = tested on: poly(ADP)ribose polymerase (PARP) cleavage, HL-60 cells; test: PARP cleavage western blot, HL-60 cells; type: cell-based, human; details: 2.5 μM, 2 h (FIG. 5B)
Procedure: (§8) Cleavage of the enzyme poly(ADP)ribose polymerase (PARP) by caspase-3 and related proteases is considered to be one of the molecular hallmarks of caspase-mediated apoptosis. Therefore, the ability of gambogic acid to induce PARP cleavage in four different human tumor cell lines (Jurkat cells, HL-60 cells, T47D cells and PC3 cells) was determined.
(§9) Cells were cultured in complete growth medium containing 10% FBS and treated with gambogic acid at concentrations of 2.5 μM or 5 μM for 2 to 4 h. Control cultures were treated with a drug vehicle (DMSO), or the well-characterized apoptosis inducer, staurosporine. At the end of the apoptosis induction period, the cells were harvested, washed once with PBS, quick-frozen on dry ice, and stored at −80° C. The cells were then lysed in a standard immunoblotting lysis buffer and samples of the lysates were electrophoresed on 4% to 20% gradient polyacrylamide gels. The proteins in the gels were then transferred to PVDF membranes and probed with a commercially-available rabbit polyclonal antibody to PARP.

[5] = tested on: poly(ADP)ribose polymerase (PARP) cleavage, PC3 cells; test: PARP cleavage western blot, PC3 cells; type: cell-based, human; details: 5 μM, 4 h (FIG. 5D)
Procedure: as §8, §9

[6] = tested on: caspase activity, PC-3 cells; test: Caspase induction and its inhibition by caspase inhibitor (Example 97), PC-3; type: cell-based, human; parameters: key to Inhibition of caspase activity by Inhibitor: The caspase activity detected was inhibited by the caspase inhibitor (+)
Procedure: as §6, §7

## CC(C)=CCC[C@]1(C)C=Cc2c(O)c3c(c(CC=C(C)C)c2O1)O[C@]12C(=C[C@@H]4C[C@H]1C(C)(C)O[C@@]2(C/C=C(/C)C(=O)O)C4=O)C3=O [Example 1, Gambogic Acid]
KB-V1 cell line
  Cytotoxicity against KB-V1 cell line: cytotoxic
[1]
  GI50: 800 nM
HL-60 cells; read-out: GI50 (dose for 50% inhibition of cell proliferation)
  GI50: 500 nM
HL-60 cells; read-out: LC50 (dose for 50% cell death)
  CC50: 700 nM
[2]; 10 μM gambogic acid with 10 μM caspase inhibitor cbz-Val-Asp-fmk
  Inhibition of caspase activity by Inhibitor: +
[2]; 10 μM gambogic acid, up to 24 h
  Caspase activity: + (Gambogic acid induced caspase activity in a ratio of greater than 2.5 (+) above untreated cell levels)
T47D breast cancer cells
  Nuclear fragmentation (Syto16 nuclear staining): condensed and fragmented nuclei in a large population of the cells
[3]
  GI50: 500 nM
Jurkat T leukemia cells; 10 μM gambogic acid, 30 min, with 10 μM caspase inhibitor cbz-Val-Asp-fink (FIG. 3C)
  Cell morphology of Jurkat cells in presence of caspase inhibitor: prevented the morphological changes
Jurkat T leukemia cells; 10 μM, 30 min (FIG. 3B)
  Cell morphology of Jurkat cells: blebbing and cellular fragmentation
[4]
  PARP cleavage: almost complete PARP cleavage
[5]
  PARP cleavage: a moderate amount of PARP cleavage product
[6]; PC-3, 10 μM gambogic acid with 10 μM caspase inhibitor cbz-Val-Asp-fmk
  Inhibition of caspase activity by Inhibitor: +
[6]; PC-3, 10 μM gambogic acid, up to 24 h
  Caspase activity: + (Gambogic acid induced caspase activity in a ratio of greater than 2.5 (+) above untreated cell levels)
